Measurements as given in patent US7666642B2, “Nematode fatty acid desaturase-like sequences” (Divergence, Inc., priority 2001, dated 2010).
Where two headings read alike, the source gives them in different places.

Experiments:
[1] = system: everted hamster jejunal and ileal segments; details: cited from earlier work
[2] = system: isolated intestinal epithelial cells; details: cited from earlier work
[3] = system: Δ9 fatty acid desaturases; details: cited from earlier work
plants [4] = details: in vivo
C. elegans [5] = assay: Inhibitor studies: C. elegans cultures on NGM plates containing fatty acid methyl esters; assay type: in vivo; details: for Lifecycle impairments of C. elegans cultures: methyl ester on NGM plates with OP50 E. coli
Source text: Vernolic acid and ricinoleic acid are naturally occurring plant-produced fatty acid homologs that we predict to be specific inhibitors of Δ12 FAT enzymes. The addition of these compounds to living cultures of C. elegans is expected to mimic the effects of the Δ12 FAT RNAi experiments since, in each case, the phenotype observed should derive from the inhibition of the nematode Δ12 FAT. To explore this possibility, C. elegans cultures were started from eggs on NGM plates containing their E. coli food source and one of either 3 mM ricinolcic acid methyl ester or 3 mM vernolic acid methyl ester. Total eggs layed and hatch-rates of F1 and F2 individuals were followed and compared to nematode cultures grown in the presence of control fatty acids oleic acid methyl ester and linoleic acid methyl ester. C. elegans L4 larvae were added to NGM plates containing OP50 E. coli and one of the following methyl esters: oleic acid, linolcic acid, ricinoleic acid, vernolic acid or none. C. elegans L4 larvae growing on plates containing ricinoleic acid (FIG. 11) or vernolic acid (FIG. 12) methyl esters developed to mature adults more slowly than those on control plates containing oleic acid (FIG. 9) or linoleic acid (FIG. 10) and produced very few embryos (eggs).

C. elegans [6] = assay: Rescue of C. elegans Δ12 FAT RNAi feeding phenotype by fatty acid methyl esters; assay type: in vivo; details: 3 mM added to the NGM media
Source text: RNAi by feeding: C. elegans can be grown on lawns of E. coli genetically engineered to produce double stranded RNA (dsRNA) designed to inhibit Δ12 FAT expression. Briefly, E. coli were transformed with a genomic fragment of a portion of the C. elegans Δ12 FAT gene sequence, specifically a fragment 651 nucleotides long, containing the entire first exon and terminating just before the conserved intron splice junction between the first exon and first intron. This construct encodes approximately the first 217 amino acids of the C. clegans Δ12 FAT gene. The 651 nucleotide genomic fragment was cloned into an E. coli expression vector between opposing T7 polymerase promoters. The clone was then transformed into a strain of E. coli that carries an IPTG-inducible T7 polymerase. As a control, E. coli was transformed with a gene encoding the Green Fluorescent Protein (GFP).
Feeding RNAi was initiated from C. elegans eggs or from C. elegans L4s.
The C. elegans Δ12 fatty acid desaturase (Fat2 protein) converts the mono-unsaturated oleic acid to the di-unsaturated fatty acid linoleic acid. The […] FAT RNAi prevents expression of the Δ12 fatty acid desaturase, which is predicted to cause a decrease in levels of linoleic acid in the nematode, leading to arrested development and death.

plants [7] = assay: Toxicity to plants (phytotoxicity); details: at least some plants
[8] = 3 mM methyl ester on NGM plates with OP50 E. coli

CCCCCC[C@@H](O)C/C=C\CCCCCCCC(=O)O [Ricinoleic acid, reference compound]
Effect on water and electrolyte absorption [1]: inhibitory effect
Cytotoxicity [2]: cytotoxic

CCCCCCCCC1=C(CCCCCCCC(=O)O)C1 [Sterculic acid]
Inhibition of Δ9 fatty acid desaturases [3]: potent inhibitor

CCCCCC#CC/C=C\CCCCCCCC(=O)OC [crepenynic acid methyl ester]
Toxicity to plants (plants [4]): do not appear to be toxic (or are very much less toxic)

CCCCC/C=C\C/C=C\CCCCCCCC(=O)OC [linoleic acid methyl ester, reference compound]
Lifecycle impairments of C. elegans cultures (C. elegans [5]): no dramatic lifecycle impairments
Rescue of the Δ12 FAT RNAi feeding phenotype (C. elegans [6]): partial rescue

CCCCCCCCC1=C(CCCCCCC(=O)O)C1 [malvalate]
Inhibition of Δ9 fatty acid desaturases [3]: equally inhibitory

CCCCCCCC/C=C\CCCCCCCC(=O)OC [oleic acid methyl ester, reference compound]
Lifecycle impairments of C. elegans cultures (C. elegans [5]): no dramatic lifecycle impairments
Rescue of the Δ12 FAT RNAi feeding phenotype (C. elegans [6]): does not rescue

CCCCCC[C@@H](O)C/C=C/CCCCCCCC(=O)OC [ricinelaidic acid methyl ester]
Toxicity to plants (plants [7]): do not appear to be toxic (or are very much less toxic)

CCCCCC[C@@H](O)C/C=C\CCCCCCCC(=O)OC [ricinoleic acid methyl ester]
Embryos (eggs) produced (C. elegans [5]; [8]): very few
Phenotype of young larvae from embryos that hatched (C. elegans [5]; [8]): severe arrested phenotypes and did not develop to adults
Development of L4 larvae to mature adults (C. elegans [5]; 3 mM methyl ester on NGM plates with OP50 E. coli, compared with oleic or linoleic acid control plates): more slowly
Nematicidal activity (C. elegans [5]; methyl esters of fatty acid analogs): nematicidal
Effect on water and electrolyte absorption [1]: ineffective
Toxicity to plants (plants [7]): do not appear to be toxic (or are very much less toxic)
